# Laboratory results from US20220287306A1, “METHOD FOR IMPROVING TURFGRASS ABIOTIC STRESS TOLERANCE” (SYNGENTA PARTICATIONS AG, priority 2014, published 2022).
# Experiments:
# Assay type in all cases: in vivo
# warm-season turfgrasses = assay: Abiotic stress and phytotoxicity at stated application rates on warm-season turfgrasses; conditions: ASM between about 4 and about 200 g/ha per application
# From the text: As indicated above, the methods of the present invention may be useful in suppressing abiotic stress or stresses in warm-season turfgrasses. In some embodiments of the present invention, ASM may be applied at a rate of between about 4 and about 200 g/ha per application. In further embodiments of the invention, ASM may be applied at a rate between about 12 and about 150 g/ha per application, or between 12 and about 96 g/ha per application, or between about 12 and about 64 g/ha per application, or between about 12 and about 32 g/ha per application, or between about 32 and about 140 g/ha per application, or between about 32 and about 96 g/ha per application, or between about 32 and about 64 g/ha per application, or between about 64 and about 140 g/ha per application, or between about 64 and about 96 g/ha per application, or between about 96 and about 140 g/ha per application.
# cool-season grasses = assay: Phytotoxicity at stated application rates on cool-season grasses; conditions: ASM between about 4 and about 200 g/ha per application
# Ultradwarf Bermudagrass [1] = assay: Evapotranspiration of treated turfgrass samples at various vapor pressure deficits in the growth chamber (Example 3); conditions: ASM 30.8 g/ha per spray, 15 applications at 14 day intervals, with chlorothalonil, fluazinam and azoxystrobin products; vs Control without ASM; samples July 2015 and September 2015
# From the text: (§1) Fifteen applications of treatments were made on 14 day intervals through the season (starting in May and extending through October) on Ultradwarf Bermudagrass on golf course greens. The treatments included (1) a Control that included products with the active ingredients of chlorothalonil, fluazinam and azoxystrobin and no ASM and (2) a treatment that included products with the same active ingredients and rates of the Control treatment, but also included 30.8 g/ha rate of ASM for each spray.
# (§2) Turfgrass Samples from the treated plots were taken from a) the ASM treated plots as well b) the Control plots without acibenzolar-s-methyl at two different timings—July 2015 and September 2015. All samples were tested for evapotranspiration at various vapor pressure deficits (VPD) in the growth chamber. The results of the testing are illustrated in FIGS. 9-12.
# Ultradwarf Bermudagrass [2] = assay: Turf quality and phytotoxicity on golf course greens (Example 3); conditions: ASM 30.8 g/ha per spray, 15 applications at 14 day intervals
# From the text: as §1, §2
smiles,measurement,setting,value
"CSC(=O)c1cccc2nnsc12 [ASM, S-methyl benzo[1,2,3]thiadiazole-7-carbothioate]",phytotoxicity to warm-season turfgrasses,warm-season turfgrasses,avoiding unacceptable phytotoxicity
same,phytotoxicity to cool-season grasses,cool-season grasses,unacceptable levels of phytotoxicity
same,evapotranspiration as VPD increases,Ultradwarf Bermudagrass [1],overall reduced evapotranspiration
same,phytotoxicity to the turfgrass,Ultradwarf Bermudagrass [2],did not result in any unacceptable phytotoxicity
same,turf quality under drought or heat stress,"Ultradwarf Bermudagrass [2]; with chlorothalonil, fluazinam and azoxystrobin products",improved turf quality
